{"source": "patent US20120039816A1", "about": "“USE OF 7-CHLORO-N,N,5-TRIMETHYL-4-OXO-3-PHENYL-3,5-DIHYDRO-4H-PYRIDAZINO[4,5-B] INDOLE-1-ACETAMIDE AS A BIOMARKER OF PERIPHERAL BENZODIAZEPINE RECEPTOR LEVELS” (SANOFI-AVENTIS, priority 2008, published 2012)", "key": {"[1]": {"target": "T1, PBR (Homo sapiens, UniProt P30536)", "T1 sequence (P30536 whole entry, species assumed)": "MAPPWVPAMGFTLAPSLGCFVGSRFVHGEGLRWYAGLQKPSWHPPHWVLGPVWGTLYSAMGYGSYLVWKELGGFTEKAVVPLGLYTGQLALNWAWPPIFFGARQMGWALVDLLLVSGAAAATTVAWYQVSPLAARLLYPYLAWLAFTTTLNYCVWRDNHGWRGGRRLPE", "settings": "in vitro and in vivo; cited from earlier work"}, "[2]": {"target": "PBR (Rattus norvegicus, UniProt P16257)", "settings": "excess unlabelled PK11195 (23 μM) or A (22 μM), FIG. 5"}, "[3]": {"system": "PBR", "experiment": "PET imaging in quinolinic acid primate model of neuroinflammation", "assay_type": "in vivo, Cynomolgus macaques (Macaca fascicularis)", "description": "Cynomolgus macaques (Macaca fascicularis) weighing 4-5 kg were housed in thermoregulated, humidity controlled facilities under a 12 h/12 h light/dark cycle (light on between 7 h a.m. and 7 h p.m.) and were allowed free access to food and water. Neuroinflammation was induced by local sterotaxic injections of quinolinic acid (quinolinic acid, Sigma, St. Louis, Mo.; dissolved in 0.1 M PBS, pH 7.2) into the primate striatum (1 injection site into caudate and 2 injection sites into the putamen) during two different surgical interventions where quinolinic acid was injected into one hemisphere on day 1 and the second hemisphere 2 weeks or 7 months later (FIGS. 8 and 9). During each surgical session the animals received 60 nmol of quinolinic acid distributed over three different striatal sites, one 5 μL site in the caudate and two 10 μL sites in the putamen using a 10 μL-Hamilton syringe attached to a 26-gauge needle. […] The excitotoxin was injected at a rate of 0.1 μL/min and the injection syringe left in place for an additional 5 min to avoid backflow of the toxin. Throughout the surgery, the primate temperature was maintained normothermic (rectal temperature, 36° C.±0.6° C., mean±SD). After removing the needle, the skin was sutured and the animals were allowed to recover from anesthesia and returned to their cages when fully awake.\nImaging sessions were performed before and at various times after quinolinic acid injection (24 hrs, 48 hrs, 9 days, 16 days and 7 months post lesion).\nOne hour before PET imaging, animals were anaesthetized by intramuscular injection of a ketamine/xylazine mixture (15 mg/kg/1.5 mg/kg) and intubated. Catheters were then placed in a saphenous vein for radiotracer injection and in a femoral artery for blood sampling. Animals were maintained anaesthetized by an intravenous injection of propofol (Diprivan® 1%; 0.05 mg·kg^−1·min^−1).\nTo ensure correct positioning of the animal in the apparatus, the animal's head was secured in a home-made stereotactic frame. PET scans were performed using the high-resolution Focus micro-PET (CTI-Siemens, Knoxville, Tenn.), which acquires 95 contiguous planes simultaneously. For attenuation correction, a transmission scan was first performed using a ^68Ge rotating rod source.\n(§1) PET image analysis was performed using ASIPro VM™ (CTI Concorde Microsystems' Analysis Tools and System Setup/Diagnostics Tool) and Brainvisa/Anatomist (http://brainvisa.info/)."}, "[4]": {"target": "T2, PBR (peripheral benzodiazepine receptor) (Rattus norvegicus, UniProt P16257)", "T2 construct": "lesioned striatum of AMPA-injected rats (the region in which PBR expression is induced); from tissue; host or cells: brain (AMPA-lesioned and intact striatum) of Wistar rats, imaged in vivo or cut into 20 µm sections", "experiment": "MicroPET imaging in AMPA-lesioned rat model of neuroinflammation", "assay_type": "in vivo, Wistar rats", "description": "Wistar rats (average body weight 300 g, centre d'Élevage René Janvier, France) were kept in thermoregulated, humidity controlled facilities under a 12 h/12 h light/dark cycle (light on between 7 h AM and 7 h PM) and were allowed free access to food and water. […] AMPA (0.5 μL) was injected into the right striatum (Bregma+0.7 mm, from sagittal suture: 2.7 mm, depth from brain surface: 5.5 mm).\n(§2) MicroPET imaging was performed 7 days post-AMPA injection in rats and in 11-12 month old transgenic mice. In both mice and rats, anaesthesia was induced by isoflurane 5%, and thereafter maintained by 2-2.5% of isoflurane in a mixture of 70%/30% […]. […] Mice were placed on a bed equipped with an anaesthetic mask allowing heating of the air flow and the rectal temperature was monitored using the Homeothermic Blanket Control Unit.\n(§3) In rats, radiolabelled compounds and unlabelled ligands were injected in the caudal vein with the use of 24 gauge catheter. Radiolabelled compounds were injected concomitantly at the start of the PET acquisition and unlabelled compounds were injected 20 min after injection of radiotracers. PET data were acquired for 80 min. In mice, radiolabelled compounds were injected in the caudal vein using 28 gauge needles immediately before the PET scan initiation. PET data were acquired for 60 min.\nas §1"}, "[5]": {"experiment": "Metabolite analysis in rat blood and brain", "assay_type": "in vivo, Wistar rats", "description": "A blood sample was collected and plasma isolated by centrifugation (5 min, 3000 rpm). Plasma proteins were precipitated from 400 μL of serum by addition of 400 μL of acetonitrile. After centrifugation (5 min, 3000 rpm), the supernatant was injected onto the HPLC column. Rat brains were removed and hemispheres were separated. Homogenisation by sonication was performed in 1 mL of acetonitrile per hemisphere. After a rapid centrifugation, the supernatant was separated from the pellet and concentrated under reduced pressure before injection onto the HPLC (see radiochemistry section for HPLC conditions)."}, "[6]": {"target": "T3, PBR (Mus musculus, UniProt P50637)", "T3 construct": "from tissue; host or cells: brain of PS1 and APPxPS1 transgenic mice, imaged in vivo at 11-12 months or cut into sections at 20-23 months", "experiment": "MicroPET imaging in APP×PS1 and PS1 transgenic mice", "assay_type": "in vivo", "settings": "for uptake in APP×PS1 vs wild type PS1: whole brain, 11-12 month old mice, PET", "from_the_text": "Generation and characterization of single PS1M146L (PS1) and double APP751SL×PS1M146L (APP×PS1) transgenic mice were achieved, as described previously (Blanchard, V. et al. (2003) Exp. Neurol. 184: 247-263). In these animals APP is expressed at a high level in all cortical neurons under the control of the Thy-1 promoter. Human PS1 with the M146L mutation is expressed under the control of the HMG-CoA reductase promoter. […] Both single PS1 and double APP×PS1 mice, provided by Sanofi-Aventis, were used for PET imaging at the age of 11-12 months and autoradiography at 20-23 months.\nas §2, §3, §1"}, "[7]": {"target": "T1, PBR", "settings": "PET ligand; cited from earlier work"}, "[8]": {"settings": "systemic, large excess (1 mg/kg), 30 min after radiotracer injection (FIG. 9)"}}, "data": [{"smiles": "CN(C)C(=O)Cc1nn(-c2ccccc2)c(=O)c2c1c1ccc(Cl)cc1n2C", "note": "[A, 7-chloro-N,N,5-trimethyl-4-oxo-3-phenyl-3,5-dihydro-4H-pyridazino[4,5-b]indole-1-acetamide]", "values": [{"measurement": "affinity for the PBR", "setting": "[1]", "value": "high affinity"}]}, {"smiles": "CCC(C)N(C)C(=O)c1cc2ccccc2c(-c2ccccc2Cl)n1", "note": "(stereo not drawn) [PK11195]", "values": [{"measurement": "effect of excess unlabelled ligand on ipsilateral to contralateral ratio of [^11C]-A binding", "setting": "[2]", "value": "abolished"}, {"measurement": "effect of excess unlabelled compound on [^11C]-A binding in lesioned striatum", "setting": "[3]; [8]", "value": "specific displacement"}, {"measurement": "effect of excess unlabelled compound on [^11C]-A binding in non-lesioned control brain regions", "setting": "[3]; [8]", "value": "no noticeable changes"}, {"measurement": "effect of unlabelled compound on [^11C]-A binding in the controlateral side", "setting": "[4]; 1 mg/kg i.v., 20 min post [^11C]-A injection", "value": "small increase"}, {"measurement": "effect of unlabelled compound on brain uptake of [^11C]-A in lesioned striatum", "setting": "[4]; 1 mg/kg i.v., 20 min post [^11C]-A injection (FIG. 3, 4)", "value": "significantly reduced"}]}, {"smiles": "CN(C)C(=O)Cc1nn(-c2ccccc2)c(=O)c2c1c1ccc(Cl)cc1n2[11CH3]", "note": "[[^11C]-A, 7-Chloro-N,N-dimethyl-5-[^11C]methyl-4-oxo-3-phenyl-3,5-dihydro-4H-pyridazino[4,5-b]indole-1-acetamide]", "values": [{"measurement": "metabolites present in brain", "setting": "[5]; rats, 10, 20 and 30 min after [^11C]-A injection (FIG. 10)", "value": "essentially detected the parent compound only"}, {"measurement": "metabolites present in blood and plasma", "setting": "[5]; rats, 10 and 20 min after [^11C]-A injection (FIG. 10)", "value": "essentially detected the parent compound only"}, {"measurement": "uptake in lesioned striatum", "setting": "[3]; 7 months after excitotoxin injection, right striatum", "value": "returned to baseline levels"}, {"measurement": "uptake in lesioned right striatum compared to contralateral non-injected striatum and control brain regions (cerebellum, prefrontal cortex)", "setting": "[3]; 24 hrs after excitotoxin injection (FIG. 8)", "value": "significantly higher"}, {"measurement": "increase in uptake in lesioned striatum", "setting": "[3]; 48 hrs after excitotoxin injection, left hemisphere", "value": "could still be visualized"}, {"measurement": "time window of increased uptake after lesion", "setting": "[3]; early phase of neuroinflammation (FIG. 9)", "value": "can be visualised from 24 hrs up to 16 days"}, {"measurement": "uptake in contralateral non-injected striatum", "setting": "[3]; same level as brain regions of a non-injected primate (FIG. 8)", "value": "remained stable"}, {"measurement": "uptake in whole brain (cerebellum excluded) compared to [^11C]PK11195", "setting": "[6]; APP×PS1 and wild type PS1 transgenic mice, 11-12 months (FIG. 6)", "value": "higher"}, {"measurement": "uptake in APP×PS1 vs wild type PS1", "setting": "[6]", "value": "not significantly higher"}]}, {"smiles": "CC[C@@H](C)N([11CH3])C(=O)c1cc2ccccc2c(-c2ccccc2Cl)n1", "note": "[[^11C]PK11195, (R)—N—[^11C]Methyl-N-(1-methylpropyl)-1-(2-chlorophenyl)isoquinoline-3-carboxamide]", "values": [{"measurement": "R1", "setting": "[4]; AMPA-injected rats, PET", "value": "1.10±0.05"}, {"measurement": "binding potential (BP)", "setting": "[4]; AMPA-injected rats, PET", "value": "0.66±0.15"}, {"measurement": "uptake in APP×PS1 vs wild type PS1", "setting": "[6]", "value": "not significantly higher"}, {"measurement": "brain uptake", "setting": "[7]", "value": "relatively low brain uptake"}, {"measurement": "non-specific binding", "setting": "[7]", "value": "high non-specific binding"}, {"measurement": "signal to noise ratio", "setting": "[7]", "value": "poor signal to noise ratio"}]}]}
